Assay results reported in patent US9174965B2, “Pyrimidinylpiperidinyloxypyridone analogues as GPR119 modulators” (BRISTOL-MYERS SQUIBB COMPANY, priority 2012, dated 2015).
≈ marks a conversion by molar mass, not a printed value.

Experiments:
male C57BL/6J mice = assay: Mouse oral glucose tolerance test; format: in vivo; settings: for Glucose Lowering: at the minimally efficacious dose, plasma glucose AUC in oGTT; for Minimally efficacious Dose: oGTT in C57BL/6J mice
Description: Mouse Oral Glucose Tolerance Test
Twenty four (24) male C57BL/6J mice (8-10 weeks old, average weight 28 g) were randomized into 4 groups (1 mouse/cage) of 6 mice per group based on fed plasma glucose and body weight. Prior to initiating the study, mice were fasted overnight and the next morning they were weighed and placed in the experimental lab. After 30 min in the environment, the mice were bled via tail tip at −60 min and immediately given their first oral administration of vehicle (40% PEG400, 10% Cremophor EL, 50% water) or compound solutions (5 ml/kg). At time 0 the mice were bled and given 50% glucose (2 g/kg) to initiate the oral glucose tolerance test (oGTT). The mice were bled 30, 60 and 120 min after the glucose load. Blood samples were drawn into potassium EDTA, placed on ice during the study and subsequently centrifuged for 10 min at 3000 rpm at 4° C. Plasma samples were diluted 11-fold for glucose analysis in the COBAS MIRA® System (Roche Diagnostics). Area under the curve was calculated from the plasma glucose time course data using the trapezoid rule with fasting plasma glucose as the baseline (GraphPad Prism Software). The statistical significance of the changes in the glucose AUCs resulting from the different treatments was determined by one-way ANOVA followed by Dunnett's test using the vehicle group as the control (JMP software, release 5.1.2).
Find below in Table 7 data for compared compounds (See WO 2009/012275 A1).

Aqueous solubility assay = format: physicochemical; settings: aqueous buffer, thermodynamic from solid; pH 6.5 phosphate buffer, room temperature, 18-24 h
Description: Approximately 0.75 mg of accurately weighed test compound was added to 1 mL of a pH 6.5 phosphate buffer (50 mM Potassium Phosphate Buffer) to make solutions with a nominal targeted concentration of 1 mM. The vial was then rotated on an orbital shaker at room temperature for 18-24 h. After equilibration time had been met, the test solution was centrifuge filtered through a 0.45 um membrane (Millipore Ultrafree Centrifugal Filters, Durapore PVDF 0.45 um). The filtrate was then analyzed by an Agilent HP1100 HPLC/UV at multiple wavelengths using diode array detection (e.g. 210, 230, 254 and 280 nm) against a previously generated calibration curve to determine compound concentration.
Find below in Table 9 data for compared compounds (See WO 2011/127106 A1).

hERG = hERG (Homo sapiens (Human), UniProt Q12809); assay: Patch clamp electrophysiology assay, hERG; format: cell-based; settings: HEK293 cells stably expressing hERG, pH 7.4
Sequence of hERG (Q12809 whole entry): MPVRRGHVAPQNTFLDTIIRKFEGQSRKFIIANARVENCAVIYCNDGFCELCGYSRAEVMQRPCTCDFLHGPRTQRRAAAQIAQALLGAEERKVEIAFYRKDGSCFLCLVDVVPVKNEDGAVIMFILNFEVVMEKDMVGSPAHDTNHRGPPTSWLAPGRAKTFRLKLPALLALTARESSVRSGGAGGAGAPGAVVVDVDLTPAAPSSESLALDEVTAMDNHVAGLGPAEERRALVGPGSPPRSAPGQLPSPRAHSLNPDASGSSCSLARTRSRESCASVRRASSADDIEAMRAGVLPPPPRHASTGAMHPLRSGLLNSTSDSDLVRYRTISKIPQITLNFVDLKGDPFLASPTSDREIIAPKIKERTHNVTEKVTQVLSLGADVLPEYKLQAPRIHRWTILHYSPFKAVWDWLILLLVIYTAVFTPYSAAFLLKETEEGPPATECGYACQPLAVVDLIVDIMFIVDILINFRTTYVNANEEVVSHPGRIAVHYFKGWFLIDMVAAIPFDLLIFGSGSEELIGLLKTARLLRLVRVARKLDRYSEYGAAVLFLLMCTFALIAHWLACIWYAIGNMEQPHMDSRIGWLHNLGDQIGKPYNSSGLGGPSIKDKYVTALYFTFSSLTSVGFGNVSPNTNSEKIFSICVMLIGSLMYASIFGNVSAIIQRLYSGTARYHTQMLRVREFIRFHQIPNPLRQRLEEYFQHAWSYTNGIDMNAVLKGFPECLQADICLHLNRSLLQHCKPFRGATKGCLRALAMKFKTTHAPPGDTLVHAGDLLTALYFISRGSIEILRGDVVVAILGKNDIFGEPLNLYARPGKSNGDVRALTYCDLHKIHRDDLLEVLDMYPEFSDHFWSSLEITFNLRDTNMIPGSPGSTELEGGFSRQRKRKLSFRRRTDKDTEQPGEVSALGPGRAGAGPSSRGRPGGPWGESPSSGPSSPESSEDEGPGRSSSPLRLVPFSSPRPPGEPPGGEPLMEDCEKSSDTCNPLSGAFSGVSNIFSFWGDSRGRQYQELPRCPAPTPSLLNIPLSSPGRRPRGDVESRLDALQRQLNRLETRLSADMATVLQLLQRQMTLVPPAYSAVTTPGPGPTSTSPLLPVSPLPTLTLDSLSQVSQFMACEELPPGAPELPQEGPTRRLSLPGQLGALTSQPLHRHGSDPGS
Description: Compound Electrophysiology Assays
Recombinant ion channels (hERG, sodium [SCN5A], and L-type calcium [Cav1.2]) stably expressed in human embryonic kidney cells (HEK293) are used as test systems, and each system is tested using 2-3 replicates in the conventional patch clamp assay.
Ion channel membrane current recordings are made with a Multiclamp 700 series integrating patch-clamp amplifier (Axon Instruments, Foster City, Calif.) using the whole-cell variant of the patch-clamp technique.
Cells expressing hERG, sodium [SCN5A], or L-type calcium [Cav1.2] channels are placed in a plexiglass bath chamber, mounted on the stage of an inverted microscope, and perfused continuously with bath solution. […]
Initially, a current-voltage relationship is generated in the control bath solution using the following voltage protocol. hERG currents are elicited by 2 second step depolarizations applied from a holding potential of −80 mV to test potentials ranging from −70 mV to +60 mV. […] The peak tail current is monitored until a new steady-state in the presence of test article was achieved. This is followed by the application of the next higher concentration of test article to be tested, and is repeated until all concentrations of test article have been evaluated. Effects of test article on hERG channel are calculated by measuring inhibition of peak tail currents. […]

Row | solubility (Aqueous solubility assay) | SMILES | Glucose Lowering (male C57BL/6J mice) | Minimally efficacious Dose (male C57BL/6J mice) | inhibition at 30 µM (hERG)
1 | 1 µg/mL (≈ 1.88 µM) | Cc1nc(-n2cc(Cl)c(OC3CCN(c4ncc(Cl)cn4)CC3)cc2=O)ccc1N1CC[C@H](O)C1=O [Example 3, (S)-5-chloro-4-((1-(5-chloropyrimidin-2-yl)piperidin-4-yl)oxy)-5′-(3-hydroxy-2-oxopyrrolidin-1-yl)-6′-methyl-2H-[1,2′-bipyridin]-2-one] | −26% | 0.03 mg/kg | 33%
2 | 2 µg/mL (≈ 3.76 µM) | Cc1nc(-n2cc(Cl)c(OC3CCN(c4ncc(Cl)cn4)CC3)cc2=O)ccc1N1CC[C@@H](O)C1=O [Example 4, (R)-5-chloro-4-((1-(5-chloropyrimidin-2-yl)piperidin-4-yl)oxy)-5′-(3-hydroxy-2-oxopyrrolidin-1-yl)-6′-methyl-2H-[1,2′-bipyridin]-2-one] | −39% | 0.03 mg/kg | 40%
